Source: ChEMBL document CHEMBL2380255, “Dual targeting of adenosine A(2A) receptors and monoamine oxidase B by 4H-3,1-benzothiazin-4-ones” (J Med Chem, 2013)
pIC50, pKi: −log10 of the molar value. The source made the active and inactive calls. The calls are words filed in the database; no cut-off is given here.

Legend:
Adenosine receptor A2a [1] = molecular target: T1, Adenosine receptor A2a (Homo sapiens, UniProt P29274); test: Displacement of [3H]MSX2 from human recombinant adenosine A2A receptor expressed in CHO cells after 30 mins by liquid scintillation counting analysis; format: cell-based
T1 sequence (P29274 whole entry): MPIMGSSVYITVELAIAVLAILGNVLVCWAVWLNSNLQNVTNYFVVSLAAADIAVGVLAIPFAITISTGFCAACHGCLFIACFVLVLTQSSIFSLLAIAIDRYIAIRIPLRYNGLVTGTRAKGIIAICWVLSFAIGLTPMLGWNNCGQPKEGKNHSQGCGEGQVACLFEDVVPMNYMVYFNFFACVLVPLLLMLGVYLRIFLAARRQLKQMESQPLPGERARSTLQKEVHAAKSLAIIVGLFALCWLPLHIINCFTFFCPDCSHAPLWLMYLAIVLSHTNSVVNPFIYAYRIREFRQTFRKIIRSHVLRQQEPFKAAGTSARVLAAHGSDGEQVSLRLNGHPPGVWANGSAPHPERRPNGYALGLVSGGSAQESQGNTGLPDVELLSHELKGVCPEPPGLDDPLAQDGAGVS

Adenosine receptor A1 [2] = molecular target: T2, Adenosine receptor A1 (Rattus norvegicus, UniProt P25099); test: Displacement of [3H]CCPA from adenosine A1 receptor in rat brain cortical membranes after 90 mins by liquid scintillation counting analysis; format: cell membranes, Membrane
T2 sequence (P25099 whole entry): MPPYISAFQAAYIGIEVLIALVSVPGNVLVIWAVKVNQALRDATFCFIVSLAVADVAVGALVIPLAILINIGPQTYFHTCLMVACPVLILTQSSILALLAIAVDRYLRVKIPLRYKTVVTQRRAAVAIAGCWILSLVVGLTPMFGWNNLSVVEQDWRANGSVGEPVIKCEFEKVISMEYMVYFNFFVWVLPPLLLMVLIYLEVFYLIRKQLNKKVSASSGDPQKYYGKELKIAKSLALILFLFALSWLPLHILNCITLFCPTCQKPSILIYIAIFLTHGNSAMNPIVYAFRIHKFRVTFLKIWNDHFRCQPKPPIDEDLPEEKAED

[3] = molecular target: T3, Amine oxidase [flavin-containing] B (Rattus norvegicus, UniProt P19643); test: Inhibition of MAO-B in mitochondria-enriched Sprague-Dawley rat liver fractions using p-tyramine as substrate incubated for 30 mins prior to substrate addition measured for 45 mins by amplex red reagent-based microplate fluorescence reader analysis
T3 sequence (P19643 whole entry): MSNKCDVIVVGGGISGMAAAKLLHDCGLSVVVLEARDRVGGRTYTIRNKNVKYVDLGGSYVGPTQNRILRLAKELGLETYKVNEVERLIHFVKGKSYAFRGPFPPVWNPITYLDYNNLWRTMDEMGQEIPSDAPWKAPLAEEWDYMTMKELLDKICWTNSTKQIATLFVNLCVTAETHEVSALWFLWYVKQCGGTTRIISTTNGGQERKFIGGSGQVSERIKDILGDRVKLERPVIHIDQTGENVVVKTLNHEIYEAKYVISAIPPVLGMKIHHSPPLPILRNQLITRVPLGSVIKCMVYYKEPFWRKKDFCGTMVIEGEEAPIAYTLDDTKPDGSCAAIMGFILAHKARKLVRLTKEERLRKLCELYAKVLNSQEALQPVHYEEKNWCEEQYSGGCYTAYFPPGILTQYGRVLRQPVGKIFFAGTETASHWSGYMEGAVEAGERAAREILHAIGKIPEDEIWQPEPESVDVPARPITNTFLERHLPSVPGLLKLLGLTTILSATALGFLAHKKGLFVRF

[4] = Selectivity ratio of Ki for human recombinant adenosine A1 receptor to Ki for adenosine A1 receptor in rat brain cortical membranes; format: cell membranes; conditions: Membrane
Adenosine receptor A2b = molecular target: T4, Adenosine receptor A2b (Homo sapiens, UniProt P29275); test: Displacement of [3H]PSB-603 from human recombinant adenosine A2B receptor expressed in CHO cells after 75 mins by liquid scintillation counting analysis; format: cell-based
T4 sequence (P29275 whole entry): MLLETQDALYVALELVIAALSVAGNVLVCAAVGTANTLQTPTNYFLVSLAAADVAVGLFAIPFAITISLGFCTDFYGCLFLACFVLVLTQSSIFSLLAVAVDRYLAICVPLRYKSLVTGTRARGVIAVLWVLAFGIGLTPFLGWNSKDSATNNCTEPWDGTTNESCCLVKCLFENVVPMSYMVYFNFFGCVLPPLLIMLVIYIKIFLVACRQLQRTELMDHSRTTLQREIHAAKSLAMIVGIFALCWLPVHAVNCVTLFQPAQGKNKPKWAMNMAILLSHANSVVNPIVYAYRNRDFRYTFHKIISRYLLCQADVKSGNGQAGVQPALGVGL

Adenosine receptor A2a [5] = molecular target: Adenosine receptor A2a (Rattus norvegicus, UniProt P30543); test: Displacement of [3H]MSX2 from adenosine A2A receptor in rat brain striatal membranes after 30 mins by liquid scintillation counting analysis; format: cell membranes, Membrane
Sequence of Adenosine receptor A2a (Rattus norvegicus, UniProt P30543) (P30543 whole entry): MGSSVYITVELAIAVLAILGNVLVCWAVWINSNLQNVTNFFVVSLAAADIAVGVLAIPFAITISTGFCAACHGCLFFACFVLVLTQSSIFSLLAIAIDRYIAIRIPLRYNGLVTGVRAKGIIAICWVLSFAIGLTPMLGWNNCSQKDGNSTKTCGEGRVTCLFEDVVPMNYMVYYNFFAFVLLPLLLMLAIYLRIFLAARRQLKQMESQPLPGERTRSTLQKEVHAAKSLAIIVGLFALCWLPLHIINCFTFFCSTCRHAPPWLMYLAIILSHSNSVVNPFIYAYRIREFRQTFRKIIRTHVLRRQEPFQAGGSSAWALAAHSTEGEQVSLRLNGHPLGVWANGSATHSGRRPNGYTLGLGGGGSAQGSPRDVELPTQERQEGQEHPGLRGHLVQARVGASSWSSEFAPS

[6] = Selectivity ratio of IC50 for MAO-B in mitochondria-enriched Sprague-Dawley rat liver fractions to IC50 for recombinant human MAO-B
[7] = molecular target: T5, Amine oxidase [flavin-containing] B (Homo sapiens, UniProt P27338); test: Inhibition of recombinant human MAO-B expressed in baculovirus-infected insect cells using p-tyramine as substrate incubated for 30 mins prior to substrate addition measured for 45 mins by amplex red reagent-based microplate fluorescence reader analysis; format: cell-based
T5 sequence (P27338 whole entry): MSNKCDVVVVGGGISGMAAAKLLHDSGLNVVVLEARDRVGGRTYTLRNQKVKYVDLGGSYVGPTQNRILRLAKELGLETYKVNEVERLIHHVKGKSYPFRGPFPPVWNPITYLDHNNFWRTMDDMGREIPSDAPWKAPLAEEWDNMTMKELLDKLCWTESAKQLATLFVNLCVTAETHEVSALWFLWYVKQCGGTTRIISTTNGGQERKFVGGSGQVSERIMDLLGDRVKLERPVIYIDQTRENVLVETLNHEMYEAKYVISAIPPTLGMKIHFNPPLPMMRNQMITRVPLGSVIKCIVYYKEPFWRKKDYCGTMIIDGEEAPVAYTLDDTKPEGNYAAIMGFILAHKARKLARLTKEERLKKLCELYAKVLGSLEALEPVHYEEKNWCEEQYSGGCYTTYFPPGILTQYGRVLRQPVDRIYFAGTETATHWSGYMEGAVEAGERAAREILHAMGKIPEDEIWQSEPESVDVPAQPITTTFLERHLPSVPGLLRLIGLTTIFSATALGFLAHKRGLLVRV

Adenosine receptor A1 [8] = molecular target: T6, Adenosine receptor A1 (Homo sapiens, UniProt P30542); test: Displacement of [3H]CCPA from human recombinant adenosine A1 receptor expressed in CHO cells after 90 mins by liquid scintillation counting analysis; format: cell-based
T6 sequence (P30542 whole entry): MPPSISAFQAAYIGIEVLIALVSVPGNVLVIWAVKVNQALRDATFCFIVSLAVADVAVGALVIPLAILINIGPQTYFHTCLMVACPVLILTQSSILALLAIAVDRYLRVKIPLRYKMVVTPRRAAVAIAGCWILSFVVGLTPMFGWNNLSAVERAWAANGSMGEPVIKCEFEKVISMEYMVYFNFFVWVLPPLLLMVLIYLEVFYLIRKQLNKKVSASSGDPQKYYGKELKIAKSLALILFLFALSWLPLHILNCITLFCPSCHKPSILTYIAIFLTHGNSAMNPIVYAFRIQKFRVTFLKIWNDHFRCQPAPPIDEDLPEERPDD

Adenosine receptor A3 [9] = molecular target: T7, Adenosine receptor A3 (Homo sapiens, UniProt P0DMS8); test: Displacement of [3H]PSB-11 from human recombinant adenosine A3 receptor expressed in CHO cells after 60 mins by liquid scintillation counting analysis; format: cell-based
T7 sequence (P0DMS8 whole entry): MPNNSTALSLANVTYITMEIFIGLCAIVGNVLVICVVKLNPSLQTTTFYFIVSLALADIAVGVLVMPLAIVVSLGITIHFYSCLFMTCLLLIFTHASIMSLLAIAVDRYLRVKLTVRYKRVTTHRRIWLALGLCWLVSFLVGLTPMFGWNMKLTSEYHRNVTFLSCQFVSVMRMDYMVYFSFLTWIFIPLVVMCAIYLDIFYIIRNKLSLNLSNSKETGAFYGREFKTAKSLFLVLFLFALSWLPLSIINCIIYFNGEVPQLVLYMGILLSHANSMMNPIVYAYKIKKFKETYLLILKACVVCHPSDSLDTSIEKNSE

[10] = molecular target: T5, Amine oxidase [flavin-containing] B; test: Reversible inhibition of human MAO-B using p-tyramine as substrate at IC80 incubated for 22 mins followed by substrate addition measured for 5 hrs by fluorescence assay
Homo sapiens [11] = species on record: Homo sapiens; test: Selectivity ratio of Ki for human recombinant adenosine A3 receptor to Ki for human recombinant adenosine A2A receptor
Homo sapiens [12] = species on record: Homo sapiens; test: Selectivity ratio of Ki for human recombinant adenosine A1 receptor to Ki for human recombinant adenosine A2A receptor
Homo sapiens [13] = species on record: Homo sapiens; test: Selectivity ratio of Ki for human recombinant adenosine A2B receptor to Ki for human recombinant adenosine A2A receptor
[14] = Selectivity ratio of Ki for adenosine A2A receptor in rat brain striatal membranes to Ki for human recombinant adenosine A2A receptor; format: cell membranes; conditions: Membrane
[15] = Stability of the compound in DMSO at 1 mg/ml under daylight condition at 20 degC after 7 days by LC-MS analysis; format: physicochemical; conditions: 168 h
[16] = molecular target: T5, Amine oxidase [flavin-containing] B; test: Competitive inhibition of human MAO-B using p-tyramine as substrate at 50 to 300 nM using p-tyramine as substrate incubated for 30 mins prior to substrate addition measured for 45 mins by Lineweaver-burk plot analysis; conditions: 0.75 h
Adenosine receptor A2a [17] = molecular target: T1, Adenosine receptor A2a; test: Antagonist activity at human adenosine A2A receptor expressed in CHO cells assessed as decrease in cAMP accumulation up to 20 uM preincubated for 10 mins measured after 60 mins by liquid scintillation counting analysis in presence of [3H]cAMP; format: functional, cell-based
Adenosine receptor A2a [18] = molecular target: T1, Adenosine receptor A2a; test: Antagonist activity at human adenosine A2A receptor expressed in CHO cells assessed as decrease in NECA-induced cAMP accumulation up to 20 uM incubated for 10 mins followed by NECA induction for 15 mins measured after 60 mins by liquid scintillation counting analysis in presence of [3H]cAMP; format: functional, cell-based
[19] = molecular target: T5, Amine oxidase [flavin-containing] B; test: Ratio of selegiline IC50 to compound IC50 for recombinant human MAO-B
Adenosine receptor A3 [20] = molecular target: T7, Adenosine receptor A3; test: Displacement of [3H]PSB-11 from human recombinant adenosine A3 receptor expressed in CHO cells; format: cell-based
Adenosine receptor A1 [21] = molecular target: T6, Adenosine receptor A1; test: Displacement of [3H]CCPA from human recombinant adenosine A1 receptor expressed in CHO cells
[22] = Stability of the compound in DMSO at 1 mg/ml under daylight condition at 20 degC after 24 hrs by LC-MS analysis; format: physicochemical

Row | SMILES | pKi (Adenosine receptor A2a [1]) | pKi (Adenosine receptor A1 [2]) | pIC50 [3] | pKi (Adenosine receptor A2b) | pKi (Adenosine receptor A2a [5]) | Ratio IC50 [6] | pIC50 [7] | pKi (Adenosine receptor A1 [8]) | pKi (Adenosine receptor A3 [9]) | inhibition (INH) [10] | Ratio Ki (Homo sapiens [11]) | Ratio Ki (Homo sapiens [12]) | Ratio Ki (Homo sapiens [13]) | other results
1 | COc1cccc(/C=C/CC(=O)Nc2nc3ccccc3c(=O)s2)c1 | 7.04 | 7.95 | 5.69 | ≤ 6.00 | 6.50 | 1.4 | 6.62 | 6.30 | 6.94 | – | – | – | – | Ratio Ki [4]: < 45
2 | O=C(C/C=C/c1cccc(Cl)c1)Nc1nc2ccccc2c(=O)s1 | – | 7.94 | 6.08 | < 6.00 | ≤ 5.00 | 1.4 | < 6.00 | 6.25 | < 6.00 | – | – | – | – | Ratio Ki [4]: < 45
3 | O=C(CCCc1ccccc1)Nc1nc2ccccc2c(=O)s1 | 7.40 | 6.64 | 6.73 | < 6.00 | 6.37 | 1.4 | 7.46 | 5.60 | < 6.00 | Active | > 25 | 63 | > 25 | Stability [15]: Stable; inhibition (INH) [16]: Active; Activity (Adenosine receptor A2a [17]): Active; Activity (Adenosine receptor A2a [18]): Active
4 | O=C(CCCc1ccccc1)Nc1nc2sccc2c(=O)s1 | 7.08 | 7.45 | 6.54 | 6.44 | 6.16 | 1.4 | 7.16 | 6.44 | < 6.00 | Active | 12 | 4 | 4 | –
5 | O=C(COc1cccc(Cl)c1)Nc1nc2ccccc2c(=O)s1 | – | < 5.00 | 6.18 | < 6.00 | < 5.00 | 400 | 8.79 | – | < 6.00 | – | – | – | – | Ratio IC50 [19]: 4
6 | CCn1c(=O)c2c(nc(/C=C/c3ccc(OC)c(OC)c3)n2C)n(CC)c1=O [ISTRADEFYLLINE] | – | – | – | – | – | – | – | – | – | – | – | – | – | pKi (Adenosine receptor A3 [20]): < 5.52; pKi (Adenosine receptor A1 [21]): 5.55
7 | Cn1c(=O)c2c(nc(/C=C/c3cccc(Cl)c3)n2C)n(C)c1=O | – | – | 7.41 | – | – | – | – | < 5.00 | < 6.00 | – | – | – | – | Stability [22]: Unstable

More lines, main results first:

Row | pKi (Adenosine receptor A2a [1]) | pKi (Adenosine receptor A1 [2]) | pIC50 [3] | pKi (Adenosine receptor A2b) | pKi (Adenosine receptor A2a [5]) | Ratio IC50 [6] | pIC50 [7] | pKi (Adenosine receptor A1 [8]) | pKi (Adenosine receptor A3 [9]) | inhibition (INH) [10] | Ratio Ki (Homo sapiens [11]) | Ratio Ki (Homo sapiens [12]) | Ratio Ki (Homo sapiens [13]) | SMILES | other results
8 | – | – | 7.59 | – | – | – | – | – | – | Active | – | – | – | C[C@H](NCc1ccc(OCc2cccc(F)c2)cc1)C(N)=O [SAFINAMIDE] | –
9 | 7.09 | 6.37 | 7.37 | 6.44 | 6.99 | 1.4 | 7.75 | 5.98 | 6.41 | Active | 5 | 13 | 5 | O=C(CCc1ccccc1)Nc1nc2ccccc2c(=O)s1 | –
10 | 7.19 | 6.44 | 6.21 | 6.65 | 6.53 | 1.4 | 7.02 | 5.86 | 6.76 | Active | 3 | 21 | 4 | COc1cccc(CCC(=O)Nc2nc3ccccc3c(=O)s2)c1 | Ratio Ki [14]: > 4
11 | 7.35 | – | – | < 6.00 | 6.31 | 1.4 | < 5.00 | 5.36 | < 6.00 | – | > 22 | 100 | > 22 | O=C(Nc1nc2ccccc2c(=O)s1)c1ccc(C(=O)N2CCN(Cc3ccc(Cl)cc3)CC2)cc1 | –
